From patent US10245332B2, “Contrast agents for applications including perfusion imaging” (Lantheus Medical Imaging, Inc., priority 2008, dated 2019)

Tests used:
[1] = Intravenous injection during microPET imaging in normal animals: heart rate, ECG, adverse effects; assay type: in vivo, rats, rabbits and nonhuman primates; conditions: anesthetized animals
Experimental: (§1) Imaging was performed with a microPET camera (Focus220, MICROPET) in anesthetized rats, rabbits and nonhuman primates (NHP) following the intravenous administration of 1, 2 and 3 mCi of ^18F labeled 2-tert-butyl-4-chloro-5-[4-(2-fluoro-ethoxymethyl)-benzyloy]-2H-pyridazin-3-one, also referred to herein as Agent 2. After count acquisition, images were constructed and manually re-orientated as a series of tomographic views. […] These images were acquired 30 minutes post injection (mpi) of 5.1 mCi of 2-tert-butyl-4-chloro-5-[4-(2-[^18F]fluoro-ethoxymethyl)-benzyloy]-2H-pyridazin-3-one and were decay corrected.

[2] = microPET brain imaging in normal NHP (Example 13); assay type: in vivo, nonhuman primates (NHP); conditions: 30 minutes post injection of 5.1 mCi
Experimental: as §1

[3] = microPET imaging of rat brain after intravenous injection; assay type: in vivo; conditions: about 1 mCi intravenously
Experimental: After anesthesia, about 1 mCi of Agent 2 or Agent 3 was injected into a rat intravenously and the rat brain was imaged in a microPET scanner. Following the image acquisition, the images were reconstructed into tomographic views.

[4] = microPET imaging of NHP brain after intravenous injection; assay type: in vivo, nonhuman primates (NHP)
Experimental: Similarly, in nonhuman primates (NHP), about 3 mCi of Agent 1 or Agent 2 was injected intravenously and the brain of NHP was imaged in a microPET. […] The NHP brain was not visible when imaged with Agent 1.

[5] = tested on: tumor; test: Tumor uptake measured in mouse tumor models after imaging; assay type: in vivo; conditions: about 500 μCi intravenously
Experimental: Imaging studies using several mouse tumor models, including c-neu ONCO mice, nu/nu mice with OVCAR tumor, and nu/nu mice with HT1080 tumor, were conducted using contrast agents described herein. After administering anesthesia to the mouse, about 500 μCi of Agent 2 (from Table 1) were injected intravenously and the tumor was imaged in a microPET scanner. After imaging acquisition, images were reconstructed into tomographic views. […] In addition, tumor uptake of Agent 2 was measured in the mouse models after imaging. The uptake was detectable in a range from 1-4% injected dose per gram tissue.

penetration into the brain, relative to Agent 2 ([4]; SAR study of Example 14) | Structure (SMILES) | changes in heart rate and ECG waveforms [1] | survival and adverse effects during image acquisition period [1] | transport into the brain (uptake and resolution of the images) [2] | passing the blood brain barrier and accumulating in the brain [3] | passing through blood brain barrier and accumulating in the brain ([4]; NHP, about 3 mCi intravenously) | visibility of NHP brain in microPET images ([4]; NHP, about 3 mCi intravenously) | tumor uptake [5]
– | CC(C)(C)n1ncc(OCc2ccc(COCC[18F])cc2)c(Cl)c1=O [Agent 2, 2-tert-Butyl-4-chloro-5-[4-(2-(^18F)fluoroethoxymethyl)-benzyloxy]-2H-pyridazin-3-one] | did not induce changes in heart rate and ECG waveforms | all animals survived the image acquisition period with no adverse effects | efficiently transported into the brain | capable of passing the blood brain barrier and accumulating in the brain | capable of passing through blood brain barrier and accumulating in the brain | visible | 1-4 % injected dose per gram tissue
– | CC(C)(C)n1ncc(OCc2ccc(OCCC[18F])cc2)c(Cl)c1=O [Agent 3, 2-tert-Butyl-4-chloro-5-[4-(3-(^18F)fluoropropoxy)-benzyloxy]-2H-pyridazin-3-one] | – | – | – | unlike Agent 3, Agent 2 is capable of passing the blood brain barrier | – | – | –
decreased penetration into the brain | CC(C)(C)n1ncc(OCc2ccc(CCCC[18F])cc2)c(Cl)c1=O [Agent 1, 2-tert-butyl-4-chloro-5-[4-(4-[^18F]fluoro-butyl)-benzyloxy]-2H-pyridazin-3-one] | – | – | – | – | – | not visible | –
